# Values of other authors, collected in patent US20140316796A1, “SYSTEMS, METHODS, AND COMPUTER-READABLE MEDIA FOR LIMITED DISTRIBUTION OF SPECIALTY DRUG USING A COMPUTER HUB OPERATING AT A SINGLE ACCESS POINT” (Jazz Pharmaceuticals, priority 2013, published 2014).
# What was measured:
# [1] = pH 4
# [2] = in vivo
structure (smiles),measurement,setting,value
CSCC[C@@H]1NC(=O)[C@H](CC(C)C)NC(=O)[C@H](CCCNC(=N)N)NC(=O)[C@H](CO)NC(=O)[C@@H]2CSSC[C@@H]3NC(=O)[C@H](CO)NC(=O)CNC(=O)[C@H]([C@@H](C)O)NC(=O)[C@H](CSSC[C@H](N)C(=O)N[C@@H](CCCCN)C(=O)NCC(=O)N[C@@H](CCCCN)C(=O)NCC(=O)N[C@@H](C)C(=O)N[C@@H](CCCCN)C(=O)N2)NC(=O)[C@H](CSSC[C@@H](C(N)=O)NC(=O)[C@H](CCCCN)NC(=O)CNC(=O)[C@H](CO)NC(=O)[C@H](CCCNC(=N)N)NC3=O)NC(=O)[C@H](CC(=O)O)NC(=O)[C@H](Cc2ccc(O)cc2)NC1=O [ziconotide],stabilisation by methionine-containing buffer,[1],effective in stabilizing ziconotide
same,addiction potential,[2],does not have addiction potential
same,development of tolerance,[2],tolerance does not appear to develop
same,effect on respiratory function,[2],does not suppress respiratory function
